Source: patent publication US9879043B1, “Synthesis of non-natural cofactor analogs of S-adenosyl-L-methionine using methionine adenosyltransferase” (University of Kentucky Research Foundation, priority 2013, dated 2018)

Tests used:
[1] = target: human MAT II catalytic alpha subunit alone (hMAT2A) (Homo sapiens, UniProt P31153); assay: MAT assay, turnover of S/Se-Met analogs to S(Se)AM analogs (RP-HPLC end point); format: biochemical; details: 2 mM Met analog, 1 mM ATP, 5 μM MAT, pH 8, 4 h, 37° C.; average of two assays
Method: (§1) Standard uniform assay conditions (2 mM Met analog, 1 mM ATP, 5 μM MAT, 25 mM Tris, 5 mM MgCl2, 50 mM KCl, pH 8, 4 h) were adopted to facilitate this broad assessment. For the thermophilic counterpart (mMAT), reactions were conducted at 65° C., while all other reactions were incubated at 37° C. Production of SAM analogs was determined by an RP-HPLC end point assay to afford complete analysis of the desired SAM analog and/or any corresponding degradation products known to directly derive from the desired SAM analog intermediate.
(§2) To monitor MAT reactions, analytical RP HPLC employed a Luna C18 column (5 μm, 4.6 mm×250 mm; Phenomenex, Torrance, Calif., USA) [gradient of 10% B to 40% B over 15 min, 40% B to 75% B over 5 min (A=10 mM NaH2PO4, 5 mM octane sulfonic acid, pH was adjusted to 3.5 using phosphoric acid; B=acetonitrile) flow rate=1 mL min^−1; A254].
(§3) The sMAT and mMAT reactions were conducted at 65° C. while hMATs and eMAT were incubated at 37° C. Reactions were quenched by adding an equal volume of methanol followed by centrifugation (10,000×g for 15 min) to remove the precipitated protein and product formation for each reaction was subsequently analyzed by RP-HPLC using Method D (FIG. 15, first column). For each reaction, percent yield was based upon the integration of species at 254 nm and calculated by dividing the integrated area of product and/or decomposed product by the sum of integrated area of product and/or decomposed product and the remaining substrate. The assays were repeated twice under identical conditions, and Table 2 (and FIG. 5) represents an average value of two assays. The inclusion of adenine and 5′-R-thio-5′-adenosine in these calculations is based upon the established SAM and ATP chemical decomposition pathways which indicate adenine and 5′-R-thio-5′-adenosine to only derive from SAM (not ATP). All putative products were subsequently confirmed by high resolution electrospray ionization (ESI) mass spectra with positive (+) and/or negative (−) mode.

[2] = target: human MAT II catalytic alpha and regulatory beta subunit (hMAT2) (Homo sapiens, UniProt P31153); assay: as above; format: biochemical; details: 2 mM Met analog, 1 mM ATP, 5 μM MAT, pH 8, 4 h, 37° C.; average of two assays
Method: as §1, §2, §3

| SMILES | Percentage Turn-over hMAT2A [1] | Percentage Turn-over hMAT2 [2] |
| --- | --- | --- |
| CCCC[Se]CC[C@H](N)C(=O)O [compound 13-Se, (2S)-2-amino-4-(butylselanyl)butanoic acid] | 26% | 49% |
| C#CC[Se]CC[C@H](N)C(=O)O [compound 4-Se, (2S)-2-amino-4-(prop-2-yn-1-ylselanyl)butanoic acid] | 44% | 58% |
| CC[Se]CC[C@H](N)C(=O)O [compound 3-Se, (2S)-2-amino-4-(ethylselanyl)butanoic acid] | 53% | 82% |
| NC/C=C/C[Se]CC[C@H](N)C(=O)O [compound 24-Se, (2S)-2-amino-4-{[(2E)-4-aminobut-2-en-1-yl]selanyl}butanoic acid] | 16% | 25% |
| CC(C)[Se]CC[C@H](N)C(=O)O [compound 9-Se, (2S)-2-amino-4-(propan-2-ylselanyl)butanoic acid] | 11% | 10% |
| [N-]=[N+]=NC/C=C/C[Se]CC[C@H](N)C(=O)O [compound 23-Se, (2S)-2-amino-4-{[(2E)-4-azidobut-2-en-1-yl]selanyl}butanoic acid] | 9% | 15% |
| N#CC[Se]CC[C@H](N)C(=O)O [compound 6-Se, (2S)-2-amino-4-[(cyanomethyl)selanyl]butanoic acid] | 23% | 33% |
| C=CC[Se]CC[C@H](N)C(=O)O [compound 7-Se, (2S)-2-amino-4-(prop-2-en-1-ylselanyl)butanoic acid] | 42% | 59% |
| C=C(C)C[Se]CC[C@H](N)C(=O)O [compound 12-Se, (2S)-2-amino-4-[(2-methylprop-2-en-1-yl)selanyl]butanoic acid] | 11% | 12% |
| CCC[Se]CC[C@H](N)C(=O)O [compound 8-Se, (2S)-2-amino-4-(propylselanyl)butanoic acid] | 24% | 74% |
| C[Se]CC[C@H](N)C(=O)O [2-Se, L-selenomethionine, reference compound] | 100% | 100% |
| CC(C)=CC[Se]CC[C@H](N)C(=O)O [compound 19-Se, (2S)-2-amino-4-[(3-methylbut-2-en-1-yl)selanyl]butanoic acid] | 9% | 15% |
| CSCC[C@H](N)C(=O)O [compound 2, L-methionine] | 100% | 100% |
| C#CCC[Se]CC[C@H](N)C(=O)O [compound 10-Se, (2S)-2-amino-4-(but-3-yn-1-ylselanyl)butanoic acid] | 22% | 55% |
